Values after ≈ are worked out from the molar mass of the structure shown. Active and inactive are the calls of the source. The rule behind the calls is not given here.
Legend:
[1] = Cytotoxicity against human HCT116 cells assessed as growth inhibition after 72 hrs by Alamar Blue assay; format: functional, cell-based; conditions: HCT-116, 72 h
[2] = Solubility of the compound in phosphate buffered saline at pH 6 after 2 hrs by turbidimetric method; format: physicochemical
[3] = Solubility of the compound in phosphate buffered saline at pH 2 after 2 hrs by turbidimetric method; format: physicochemical
[4] = target: T1, Kinesin-like protein KIF20B (Homo sapiens, UniProt Q96Q89); assay: Inhibition of microtubule-stimulated ATPase activity of N-terminal His6-tagged/SUMO-fused human MPP1 motor domain (2 to 477 residues) expressed in Escherichia coli BL21 CodonPlus by pyruvate kinase/lactate dehydrogenase-linked assay
T1 sequence (Q96Q89 whole entry, the tested form may be a part): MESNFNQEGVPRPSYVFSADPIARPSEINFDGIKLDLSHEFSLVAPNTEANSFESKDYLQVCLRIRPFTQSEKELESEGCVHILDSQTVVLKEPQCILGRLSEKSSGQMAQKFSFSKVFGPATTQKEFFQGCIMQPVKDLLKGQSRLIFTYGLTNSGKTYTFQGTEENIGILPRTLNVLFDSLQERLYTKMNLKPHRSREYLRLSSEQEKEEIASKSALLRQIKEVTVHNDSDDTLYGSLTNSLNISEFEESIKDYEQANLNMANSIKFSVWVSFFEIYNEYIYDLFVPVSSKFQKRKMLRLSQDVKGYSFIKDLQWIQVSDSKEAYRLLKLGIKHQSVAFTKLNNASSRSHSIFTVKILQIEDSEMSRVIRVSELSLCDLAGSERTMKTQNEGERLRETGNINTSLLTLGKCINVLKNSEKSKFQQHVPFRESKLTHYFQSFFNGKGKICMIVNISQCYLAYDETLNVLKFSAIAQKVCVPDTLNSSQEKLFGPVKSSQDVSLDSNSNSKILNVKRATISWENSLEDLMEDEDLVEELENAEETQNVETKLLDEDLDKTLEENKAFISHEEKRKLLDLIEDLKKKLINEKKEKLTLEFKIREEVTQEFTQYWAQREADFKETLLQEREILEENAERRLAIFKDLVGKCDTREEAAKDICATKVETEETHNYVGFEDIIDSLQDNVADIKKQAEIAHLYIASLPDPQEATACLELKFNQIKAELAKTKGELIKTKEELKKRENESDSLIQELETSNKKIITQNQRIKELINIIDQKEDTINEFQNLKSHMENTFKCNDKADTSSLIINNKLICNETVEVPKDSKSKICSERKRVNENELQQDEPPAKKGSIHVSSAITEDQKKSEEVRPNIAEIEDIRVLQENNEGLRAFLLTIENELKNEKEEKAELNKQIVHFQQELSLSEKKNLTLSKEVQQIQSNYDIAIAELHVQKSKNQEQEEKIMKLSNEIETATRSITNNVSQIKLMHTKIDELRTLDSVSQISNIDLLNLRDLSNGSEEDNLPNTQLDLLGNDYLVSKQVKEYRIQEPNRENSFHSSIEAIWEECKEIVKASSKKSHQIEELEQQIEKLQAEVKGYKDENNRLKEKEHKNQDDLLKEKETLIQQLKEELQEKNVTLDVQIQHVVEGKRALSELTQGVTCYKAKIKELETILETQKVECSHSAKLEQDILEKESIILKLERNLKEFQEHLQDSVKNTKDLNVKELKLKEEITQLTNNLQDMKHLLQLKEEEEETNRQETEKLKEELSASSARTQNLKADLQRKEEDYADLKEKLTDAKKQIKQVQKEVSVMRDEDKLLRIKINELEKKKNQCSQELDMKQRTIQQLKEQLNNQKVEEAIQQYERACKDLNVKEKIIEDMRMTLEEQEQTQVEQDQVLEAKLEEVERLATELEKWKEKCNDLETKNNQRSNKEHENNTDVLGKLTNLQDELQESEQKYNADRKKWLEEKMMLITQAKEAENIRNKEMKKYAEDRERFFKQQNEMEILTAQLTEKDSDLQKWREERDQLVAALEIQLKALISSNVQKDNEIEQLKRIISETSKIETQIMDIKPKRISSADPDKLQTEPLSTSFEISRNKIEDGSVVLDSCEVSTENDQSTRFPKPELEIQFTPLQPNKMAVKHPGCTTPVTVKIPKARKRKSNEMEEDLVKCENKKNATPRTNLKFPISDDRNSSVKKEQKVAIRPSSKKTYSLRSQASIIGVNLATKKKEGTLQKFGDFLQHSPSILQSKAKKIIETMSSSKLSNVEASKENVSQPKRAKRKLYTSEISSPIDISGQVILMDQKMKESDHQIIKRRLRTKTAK

[5] = Intrinsic clearance in human liver microsomes assessed per mg of protein at 3 uM after 5 to 60 mins by LC-MS/MS method; format: ADME; conditions: read-out: CLH
[6] = Cytotoxicity against human UM-UC-3 cells assessed as growth inhibition after 72 hrs by Alamar Blue assay; format: functional, cell-based; conditions: UMUC3, 72 h
[7] = target: T1, Kinesin-like protein KIF20B; assay: Inhibition of microtubule-stimulated ATPase activity of N-terminal His6-tagged/SUMO-fused human MPP1 motor domain (57 to 491 residues) expressed in Escherichia coli BL21 CodonPlus by pyruvate kinase/lactate dehydrogenase-linked assay
[8] = target: T1, Kinesin-like protein KIF20B; assay: Inhibition of basal ATPase activity of N-terminal His6-tagged/SUMO-fused human MPP1 motor domain (2 to 477 residues) expressed in Escherichia coli BL21 CodonPlus in presence of 0.1% Tween-20 by pyruvate kinase/lactate dehydrogenase-linked assay
[9] = Cytotoxicity against human J82 cells assessed as growth inhibition after 72 hrs by Alamar Blue assay; format: functional, cell-based; conditions: J82, 72 h
[10] = target: T1, Kinesin-like protein KIF20B; assay: Inhibition of basal ATPase activity of N-terminal His6-tagged/SUMO-fused human MPP1 motor domain (57 to 491 residues) expressed in Escherichia coli BL21 CodonPlus by pyruvate kinase/lactate dehydrogenase-linked assay
[11] = Solubility of the compound in phosphate buffered saline at pH 7.4 after 2 hrs by turbidimetric method; format: physicochemical
[12] = Half life in mouse liver microsomes at 3 uM by LC-MS/MS method; format: ADME
[13] = target: T1, Kinesin-like protein KIF20B; assay: Inhibition of basal ATPase activity of N-terminal His6-tagged/SUMO-fused human MPP1 motor domain (2 to 477 residues) expressed in Escherichia coli BL21 CodonPlus by pyruvate kinase/lactate dehydrogenase-linked assay
[14] = Efflux ratio of apparent permeability across basolateral to apical over apical to basolateral side in human Caco2 cells at 10 uM after 2 hrs by LC-MS/MS method; format: ADME, cell-based; conditions: Caco-2
[15] = Cytotoxicity against human BxPC3 cells assessed as growth inhibition after 72 hrs by Alamar Blue assay; format: functional, cell-based; conditions: BXPC-3, 72 h
[16] = target: T1, Kinesin-like protein KIF20B; assay: Inhibition of basal ATPase activity of N-terminal His6-tagged/SUMO-fused human MPP1 motor domain (57 to 491 residues) expressed in Escherichia coli BL21 CodonPlus in presence of 0.1% Tween-20 by pyruvate kinase/lactate dehydrogenase-linked assay
[17] = Intrinsic clearance in mouse liver microsomes assessed per mg of protein at 3 uM after 5 to 60 mins by LC-MS/MS method; format: ADME; conditions: read-out: CLH
[18] = Drug metabolism in human liver microsomes assessed as 2-(2,4-dihydroxy-6-pentylphenoxy)-4-hydroxy-6-pentanoylbenzoic acid formation at 3 uM in presence of NADPH after 5 to 45 mins by LC-MS/MS method; format: ADME
[19] = Half life in human liver microsomes at 3 uM by LC-MS/MS method; format: ADME
[20] = Drug metabolism in human liver microsomes assessed as methyl 2,4-dihydroxy-6-pentanoylbenzoate formation at 3 uM in presence of NADPH after 5 to 45 mins by LC-MS/MS method; format: ADME
[21] = Drug metabolism in human liver microsomes assessed as 3,8-dihydroxy-6-(5-hydroxypentyl)-1-pentanoyl-11H-dibenzo[b,e][1,4]dioxepin-11-one formation at 3 uM in presence of NADPH after 5 to 45 mins by LC-MS/MS method; format: ADME
[22] = Apparent passive permeability of the compound at 10 uM after 5 hrs by PAMPA; format: ADME; conditions: PAMPA
[23] = Passive permeability of the compound assessed as compound recovery at 10 uM after 5 hrs by PAMPA; format: ADME; conditions: read-out: Drug recovery
[24] = Cytotoxicity against human K562 cells assessed as growth inhibition after 72 hrs by Alamar Blue assay; format: functional, cell-based; conditions: K562, 72 h
[25] = n-octanol-buffer distribution co-efficient, log D of the compound at pH 7.4 by shake flask method; format: physicochemical
[26] = Drug level in human liver microsomes treated with norlobaridone at 3 uM in presence of NADPH after 5 to 45 mins by LC-MS/MS method; format: ADME

CCCCCc1cc(O)cc2c1Oc1cc(O)cc(C(=O)CCCC)c1C(=O)O2
EC50 [1]: 42.9 µM
solubility kinetic at 2 h [2]: 3.75 µM (≈ 1.49 µg/mL)
solubility kinetic at 2 h [3]: 6.5 µM (≈ 2.59 µg/mL)
IC50 [4]: 7.6 µM
Imax [4]: 90%
microsomal CLint at 3 µM [5]: 393 µL/min/mg
EC50 [6]: 30.5 µM
IC50 [7]: 24.4 µM
Imax [7]: 90%
inhibition [8]: Active
EC50 [9]: 48.3 µM
IC50 [10]: 18.7 µM
Imax [10]: 75%
solubility kinetic at 2 h [11]: 37.5 µM (≈ 14.9 µg/mL)
half-life at 3 µM [12]: 3.1 min
IC50 [13]: 10.8 µM
Imax [13]: 80%
efflux ratio at 2 h, 10 µM [14]: 0.51
EC50 [15]: 33.1 µM
inhibition [16]: Active
microsomal CLint at 3 µM [17]: 452 µL/min/mg
Drug metabolism [18]: Metabolite_Detected
half-life at 3 µM [19]: 3.5 min
Drug metabolism [20]: Metabolite_Detected
Drug metabolism [21]: Metabolite_Detected
Papp at 5 h, 10 µM [22]: 324 nm/s
recovery at 5 h, 10 µM [23]: 95.1%
EC50 [24]: 43.7 µM
logD [25]: 3.5

CCCCC(=O)c1cc(O)cc(O)c1C(=O)OC
Drug metabolism [26]: Metabolite_Detected

CCCCC(=O)c1cc(O)cc2c1C(=O)Oc1cc(O)cc(CCCCCO)c1O2
Drug metabolism [26]: Metabolite_Detected

CCCCCc1cc(O)cc(O)c1Oc1cc(O)cc(C(=O)CCCC)c1C(=O)O
Drug metabolism [26]: Metabolite_Detected

CCCCCc1c2c(cc(O)c1C(=O)O)OC(=O)c1c(cc(OC)cc1C(=O)CCCC)O2 [LOBARIC ACID]
EC50 [1]: 0.8 µM
EC50 [6]: 3.7 µM
EC50 [9]: 3.6 µM
EC50 [15]: 1.6 µM
EC50 [24]: 1.4 µM

Cc1cc(O)cc2c1C(=O)Oc1cc3c(c(O)c1O2)C(=O)OC3 [VARIOLARIC ACID]
EC50 [1]: > 100 µM
EC50 [6]: > 100 µM
EC50 [9]: > 50 µM
EC50 [24]: > 100 µM

From ChEMBL document CHEMBL3860026, “Depsidones from Lichens as Natural Product Inhibitors of M-Phase Phosphoprotein 1, a Human Kinesin Required for Cytokinesis” (J Nat Prod, 2016)
